For 75 molecules, EC50 results are on record in patent publication US20090137577A1, “HETEROCYCLIC COMPOUNDS” (Pfizer Inc., priority 2007, published 2009).

pEC50: −log10 of the molar value. A value given as a limit tells only on which side of the number the result lay.

In this assay the target is T1, mGluR2 receptor (metabotropic glutamate receptor 2) (Homo sapiens, UniProt Q14416).
T1 construct: expressed in transfected cells
T1 sequence (Q14416 19-872, species assumed): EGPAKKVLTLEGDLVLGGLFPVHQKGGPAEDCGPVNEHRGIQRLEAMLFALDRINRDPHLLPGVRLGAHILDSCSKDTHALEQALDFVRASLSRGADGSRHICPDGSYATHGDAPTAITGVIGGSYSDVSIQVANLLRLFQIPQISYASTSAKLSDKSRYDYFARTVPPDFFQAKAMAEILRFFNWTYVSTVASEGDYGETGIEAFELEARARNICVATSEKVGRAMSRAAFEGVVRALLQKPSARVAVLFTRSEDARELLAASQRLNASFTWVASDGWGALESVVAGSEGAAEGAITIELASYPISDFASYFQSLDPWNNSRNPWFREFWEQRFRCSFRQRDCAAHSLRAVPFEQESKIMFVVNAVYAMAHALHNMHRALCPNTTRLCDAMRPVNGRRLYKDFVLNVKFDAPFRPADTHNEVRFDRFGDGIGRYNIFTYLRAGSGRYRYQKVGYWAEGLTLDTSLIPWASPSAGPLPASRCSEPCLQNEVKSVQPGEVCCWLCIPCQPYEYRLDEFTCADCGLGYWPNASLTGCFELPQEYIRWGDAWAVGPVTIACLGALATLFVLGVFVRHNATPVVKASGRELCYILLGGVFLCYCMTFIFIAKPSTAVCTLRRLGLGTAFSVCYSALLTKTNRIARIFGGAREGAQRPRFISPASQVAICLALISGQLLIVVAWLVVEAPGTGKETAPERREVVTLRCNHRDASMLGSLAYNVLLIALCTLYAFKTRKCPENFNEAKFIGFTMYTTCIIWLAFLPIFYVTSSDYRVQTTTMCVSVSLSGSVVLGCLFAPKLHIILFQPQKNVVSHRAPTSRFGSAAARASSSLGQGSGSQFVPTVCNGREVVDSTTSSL
As to the kind of experiment: mGluR2 potentiator screen (FLIPR, EC10-EC20 glutamate challenge).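 Further: HEK cells stably expressing human mGluR2 with GL15 G protein, Fluo-4 calcium fluorescence read on FLIPR, compounds added before an EC10-EC20 glutamate challenge to detect potentiation.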 It is filed as cell-based. The note with it: geometric mean; read-out: mGluR 2 EC50 (geometric mean).
For `CC1CN(Cc2ccc(OCc3ccc(-n4cccn4)cc3)cc2)C(=O)O1` (stereo not drawn) [Example 131], the pEC50 is 6.90.
With `C[C@@H]1CN(Cc2ccc(-c3ccccc3OC(F)(F)F)cc2)C(=O)O1` [Example 164], the pEC50 is > 8.14.
The same measure for `CC1CN(Cc2ccc(OCc3c(F)cccc3F)cc2)C(=O)O1` (stereo not drawn) [Example 106]: 7.13.
With `CC1CN(Cc2ccc(OCc3ccc(C#N)cc3)cc2)C(=O)O1` (stereo not drawn) [Example 124], the pEC50 is 6.08.
The same measure for `CC1(C)CN(Cc2ccc(-c3ccc(F)cc3F)cc2)C(=O)O1` [Example 314]: 7.74; for `C[C@@H]1CN(Cc2ccc(-c3ccc(OC(F)F)cc3Cl)nc2)C(=O)O1` [Example 312]: 6.24.
With `Cc1ccc(CN2CCN(Cc3ccc(OC(C)C4CCCCC4)cc3)C(=O)C2)cc1` (stereo not drawn) [Example 216], the pEC50 is 6.33.
For `COc1ccc(F)cc1-c1ccc(CN2C[C@@H](C)OC2=O)cc1` [Example 166], the pEC50 was 7.61.
Under `C[C@@H]1CN(Cc2ccc(-c3ccc(Cl)cc3Cl)cc2)C(=O)O1` [Example 273] stands > 7.40; under `C[C@@H]1CN(Cc2ccc(-c3cccc(C#N)c3)cc2)C(=O)O1` [Example 85], 6.30; under `C[C@@H]1CN(Cc2cnc(-c3cccc(F)c3F)c(F)c2)C(=O)O1` [Example 298, (5R)-3-{[6-(2,3-Difluorophenyl)-5-fluoropyridin-3-yl]methyl}-5-methyl-1,3-oxazolidin-2-one], 5.87.
Under `C[C@@H]1CN(Cc2ccc(-c3cccc4cccnc34)cc2)C(=O)O1` [Example 173] stands 6.03; under `CC1(C)COC(=O)N(Cc2ccc(OCC3CCC3)cc2)C1` [Example 15], 6.03.
With `C[C@@H]1CN(Cc2ccc(Oc3ccc(F)cc3)cc2)C(=O)O1` [Example 179], the pEC50 is 6.86.
Under `Cc1cc(-c2ccc(CN3C[C@@H](C)OC3=O)cn2)ccc1F` [Example 271] stands 6.32; under `C[C@@H]1CN(Cc2ccc(-c3ccc(C(F)(F)F)cc3F)nc2)C(=O)O1` [Example 258], 6.69; under `CC(C)Oc1ccc(-c2ccc(CN3C[C@@H](C)OC3=O)cc2)cc1` [Example 57, (5R)-3-[(4′-isopropoxybiphenyl-4-yl)methyl]-5-methyl-1,3-oxazolidin-2-one], > 7.39.
Under `CC(C)COc1ccc(CN2CC(C)OC2=O)cc1` (stereo not drawn) [Example 20] stands 6.01.
As to `CCC(COc1ccc(CN2CC(C)OC2=O)cc1)(c1ccccc1)N(C)C` (stereo not drawn) [Example 141], the pEC50 was 6.00.
Take `CC1CN(Cc2ccc(OCc3cccc(C#N)c3)cc2)C(=O)O1` (stereo not drawn) [Example 129]: the pEC50 is 6.81.
Regarding `C[C@@H]1CN(Cc2ccc(OCC3CCC(NC4CCC4)CC3)cc2)C(=O)O1` (stereo partly drawn) [Example 297, (5R)-3-(4-{[4-(Cyclobutylamino)cyclohexyl]methoxy}benzyl)-5-methyl-1,3-oxazolidin-2-one], the pEC50 was 5.70.
In the case of `CC[C@H](Oc1ccc(CN2CC(C)OC2=O)cc1)c1ccccc1` (stereo partly drawn) [Example 148], the pEC50 was > 7.87.
On to `C[C@@H]1CN(Cc2ccc(NCC3CCCCC3)nc2)C(=O)O1` [Example 283, (5R)-3-({6-[(Cyclohexylmethyl)amino]pyridin-3-yl}methyl)-5-methyl-1,3-oxazolidin-2-one], for which the pEC50 was 5.89.
As to `Cc1ccc(F)c(COc2ccc(CN3CC(C)OC3=O)cc2)c1` (stereo not drawn) [Example 150], the pEC50 was 7.00.
Regarding `CC1CN(Cc2ccc(OCCCc3ccccc3)cc2)C(=O)O1` (stereo not drawn) [Example 104], the pEC50 was 7.42.
On to `C[C@@H]1CN(Cc2ccc(-c3cccc(Cl)c3F)cc2)C(=O)O1` [Example 235], for which the pEC50 was > 7.63.
In the case of `CC(Oc1ccc(CN2CCN(CC(C)(C)C)CC2=O)cc1)C1CCCCC1` (stereo not drawn) [Example 223], the pEC50 is 6.23.
Consider `CC1CN(Cc2ccc(O[C@H]3C[C@H]4CC[C@@H]3C4)cc2)C(=O)O1` (stereo partly drawn) [Example 123], for which the pEC50 was 7.65.
For the molecule `C[C@H]1[C@@H](c2ccccc2)OC(=O)N1Cc1ccc(OCc2ccccn2)cc1` [Example 25], the pEC50 was 5.75.
Take `CCCOc1ccc(CN2C(=O)O[C@H](c3ccccc3)[C@@H]2C)cc1` [Example 23]: the pEC50 was 6.05.
On to `CC(Oc1ccc(CN2CC(c3ccccc3)OC2=O)cc1)c1ccccc1` (stereo not drawn) [Example 39], for which the pEC50 was 6.61.
Under `C[C@@H]1CN(Cc2ccc(-c3cnc4ccccc4c3)cc2)C(=O)O1` [Example 181] stands 6.54; under `C[C@@H]1CN(Cc2ccc(-c3ccc(N(C)C)nc3)cc2)C(=O)O1` [Example 155], 6.31.
As for `CC1CN(Cc2ccc(OCC3CCCC3)cc2)C(=O)O1` (stereo not drawn) [Example 90], the negative logarithm of the EC50 (pEC50) was 7.59.
`Cc1nc(-c2ccccc2)ncc1COc1ccc(CN2CC(C)OC2=O)cc1` (stereo not drawn) [Example 133]: the pEC50 is 6.92.
Take `COc1cc(COc2ccc(CN3CC(C)OC3=O)cc2)cc(OC)c1` (stereo not drawn) [Example 113]: the pEC50 is 6.61.
Turning to `CC(=O)c1ccccc1-c1ccc(CN2C[C@@H](C)OC2=O)cc1` [Example 175], the pEC50 was 6.09.
With `Cc1oc(-c2ccccc2)nc1CCOc1ccc(CN2CC(C)OC2=O)cc1` (stereo not drawn) [Example 107], the pEC50 is 6.56.
Take `COc1ccc(-c2ccc(CN3C[C@@H](C)OC3=O)cc2)cc1F` [Example 170]: the pEC50 was 7.47.
In the case of `CC1CN(Cc2ccc(O[C@H](C)c3ccccc3)cc2)C(=O)O1` (stereo partly drawn) [Example 139], the pEC50 was 7.10.
Regarding `C[C@H]1[C@@H](c2ccccc2)OC(=O)N1Cc1ccc(OC2CCCCC2)cc1` [Example 56], the pEC50 is 6.45.
For the molecule `C[C@@H]1CN(Cc2ccc(-c3ccc(F)cc3Cl)cc2)C(=O)O1` [Example 274], the pEC50 was 7.50.
Regarding `O=C1OC(c2ccccc2)CN1Cc1ccc(OC2CCCCC2)cc1` (stereo not drawn) [Example 40], the pEC50 was 6.81.
In the case of `C[C@@H]1CN(Cc2ccc3c(c2)CCC(C)(C)O3)C(=O)O1` [Example 87, (5R)-3-[(2,2-Dimethyl-3,4-dihydro-2H-chromen-6-yl)methyl]-5-methyl-1,3-oxazolidin-2-one], the pEC50 was 5.86.
The same measure for `COc1cccc(OC)c1-c1ccc(CN2C[C@@H](C)OC2=O)cc1` [Example 161]: 6.64; for `COc1ccc(-c2ccc(CN3C[C@@H](C)OC3=O)cn2)c(F)c1F` [Example 262]: 6.44.
The same measure for `C[C@@H]1CN(Cc2ccc(-c3c(F)cccc3F)cc2)C(=O)O1` [Example 247]: 6.68; for `CC1CN(Cc2ccc(OC(C)C3CC3)cc2)C(=O)O1` (stereo not drawn) [Example 135]: 5.72; for `O=C1OC(c2ccccc2)CN1Cc1ccc(OCc2ccccc2)cc1` (stereo not drawn) [Example 8]: 6.82.
Under `CC1CN(Cc2ccc(OCCOc3ccccc3)cc2)C(=O)O1` (stereo not drawn) [Example 121] stands 6.36; under `C[C@@H]1CN(Cc2ccc(-c3ccc(C(F)(F)F)cc3C(F)(F)F)cc2)C(=O)O1` [Example 275], 7.32; under `COc1ccc(CCCOc2ccc(CN3CC(C)OC3=O)cc2)cc1` (stereo not drawn) [Example 98], 8.15.
`Cc1cc(Cl)ccc1-c1ccc(CN2C[C@@H](C)OC2=O)cc1` [Example 236]: the pEC50 was 7.31.
Under `CCC[C@H](C)Oc1ccc(CN2CC(C)OC2=O)cc1` (stereo partly drawn) [Example 134] stands 6.67; under `CC1(C)COC(=O)N(Cc2ccc(OC3CCCCC3)cc2)C1` [Example 43], 6.47.
The same measure for `CCc1ccccc1-c1ccc(CN2C[C@@H](C)OC2=O)cc1` [Example 167]: > 7.87; for `CC1CN(Cc2ccc(OCCCn3ccc4ccccc43)cc2)C(=O)O1` (stereo not drawn) [Example 149]: 7.45; for `Cc1ccc(C)n1-c1ccc(CN2C[C@@H](C)OC2=O)cc1` [Example 178, (5R)-3-[4-(2,5-dimethyl-1H-pyrrol-1-yl)benzyl]-5-methyl-1,3-oxazolidin-2-one]: 6.28.
For the molecule `CC(Oc1ccc(CN2C(=O)OC[C@@H]3CCCC[C@@H]32)cc1)C1CCCCC1` (stereo partly drawn) [Example 37], the pEC50 is 5.69.
Turning to `CC(Oc1ccc(CN2CC(c3ccccn3)OC2=O)cc1)C1CCCCC1` (stereo not drawn) [Example 207], the pEC50 is 7.20.
As for `COc1cccc(CCOc2ccc(CN3CC(C)OC3=O)cc2)c1` (stereo not drawn) [Example 105], the negative-log EC50 (pEC50) was 6.66.
For `Cc1ccccc1COc1ccc(CN2C[C@@H](C)OC2=O)cc1` [Example 186], the negative logarithm of the EC50 (pEC50) was 7.05.
The same measure for `Cc1cc(F)ccc1-c1ccc(CN2C[C@@H](C)OC2=O)cc1F` [Example 290]: 6.89.
The same measure for `C[C@@H]1CN(Cc2ccc(-c3cccc(F)c3F)c(F)c2)C(=O)O1` [Example 289]: 7.03.
For `CC1CN(Cc2ccc(OC(C)c3ccccc3)cc2)C(=O)O1` (stereo not drawn) [Example 46], the pEC50 is 6.82.
For `O=C1OC(c2ccccc2)CN1Cc1ccc(OCCC2CCCCC2)cc1` (stereo not drawn) [Example 10], the pEC50 is 6.40.
In the case of `C[C@@H]1CN(Cc2ccc(CCc3ccccc3)cc2)C(=O)O1` [Example 318, (5R)-5-methyl-3-[4-(2-phenylethyl)benzyl]-1,3-oxazolidin-2-one], the pEC50 was 6.95.
For the molecule `CC(C)COc1ccc(CN2CC(c3ccccc3)OC2=O)cc1` (stereo not drawn) [Example 6], the pEC50 is 6.82.
On to `CCC(CC)Oc1ccc(CN2CC(C)OC2=O)cc1` (stereo not drawn) [Example 136], for which the pEC50 is 6.11.
In the case of `O=C1OCCCN1Cc1ccc(OCc2ccccc2)cc1` [Example 31], the pEC50 is 5.90.
In the case of `Cc1cc(CN2C[C@@H](C)OC2=O)ccc1OCc1ccc(C(F)(F)F)cc1` [Example 284, (5R)-5-Methyl-3-(3-methyl-4-{[4-(trifluoromethyl)benzyl]oxy}benzyl)-1,3-oxazolidin-2-one], the pEC50 is 6.51.
As for `CC(C)Oc1ccc(-c2ccc(CN3C[C@@H](C)OC3=O)cn2)c(F)c1` [Example 279], the pEC50 is 6.80.
With `CC1CN(Cc2ccc(OCc3ccc(Cl)cc3)cc2)C(=O)O1` (stereo not drawn) [Example 89], the pEC50 was 7.16.
As to `CC(Oc1ccc(CN2CCN(CCC(F)(F)F)CC2=O)cc1)C1CCCCC1` (stereo not drawn) [Example 222], the pEC50 is 6.49.
On to `CCC(CC)CN1CCN(Cc2ccc(OC(C)C3CCCCC3)cc2)C(=O)C1` (stereo not drawn) [Example 217], for which the pEC50 was 6.02.

One may read the pEC50 as −log10 of the EC50, conventionally taken in molar units.
